Experimental data as given in patent US12195427B2, “MASP-2 inhibitors and methods of use” (priority 2018, dated 2025).

Target: MASP-2 CCP2-SP (Homo sapiens (Human), UniProt O00187)
Assay: MASP-2 co-crystallization, X-ray crystallography and structure analysis (H-bonds, van der Waals contacts);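 as to Ligand-pharmacophore element distance, pharmacophore element C2: distance from averaged pharmacophore element to bound ligand; missing value means element absent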;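 as to Ligand-pharmacophore element distance, pharmacophore element C3: distance from averaged pharmacophore element to bound ligand; missing value means element absent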;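 as to Ligand-pharmacophore element distance, pharmacophore element C4: distance from averaged pharmacophore element to bound ligand; missing value means element absent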;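 as to Ligand-pharmacophore element distance, pharmacophore element C5: distance from averaged pharmacophore element to bound ligand; missing value means element absent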
Design: van der Waals contact distance, MASP-2 HIS 483 atom CD2 / van der Waals contact distance, MASP-2 HIS 483 atom NE2 / van der Waals contact distance, SER 654 C to compound atom / van der Waals contact distance, SER 654 O to compound atom / van der Waals contact distance, TRP 655 C to compound atom / van der Waals contact distance, MASP-2 GLY 528 atom CA / van der Waals contact distance TRP 655 atom CZ3 / van der Waals contact distance TRP 655 atom N / van der Waals contact distance TRP 655 atom CE3 / van der Waals contact distance GLY 656 atom C / van der Waals contact distance GLY 656 atom CA / van der Waals contact distance GLY 656 atom O / van der Waals contact distance, MASP-2 TYR 607 atom CD1 / van der Waals contact distance, MASP-2 PRO 606 atom O / d(C3,CA1) / d(CA1,N1)2 / d(H4,O1) / d(H4,O2) / d(O1,O2) / d(CA1,O2) / d(CA6,O1) / d(CA6,O2) / d(CA1,C5) / d(O2,H3) / d(N2,C2) / d(CA5,N2) / d(N2,C4) / d(N2,C6) / d(N2,CA3) / d(N2,O3) / d(O4,H2): unit not given beside the values
Conditions: Table A4-1; element C2
Source text: This example illustrates the preparation of recombinant MASP-2 protein, based on UniProt O00187, human mannan-binding lectin serine protease 2. Expression constructs for human MASP-2 CCP2-SP and CCP2-SP-6HIS were generated for recombinant expression in E. coli cells.
Typically, crystallization hits were obtained by screening against […] 96-well crystallization reagent kits (GRAS6, GRAS2, Hampton Research; MORPHEUS, Molecular Dimensions; Wizard 1&2 Cryo, Rigaku Reagents) and crystal growth was inspected by optical microscopy. Crystals were used directly or further optimized for X-ray diffraction. Crystals were captured with cryogenic loops and dipped into liquid nitrogen directly or cryoprotected with a 20% glycerol in crystallization formulation before flash-cooling in liquid nitrogen.
Thereafter crystals are transferred once or twice for soaking within the crystallization solution containing the MASP-2 inhibitor.
Crystals were diffracted with synchrotron X-rays of […] and X-ray diffraction datasets were collected at beamlines SSRL BL9-2, BL14-1, BL12-2 as well as ALS sector 5 using Dectris Pilatus and Eiger detectors. Structures were determined by molecular replacement using portions of the structure 1Q3X as search models and partially refined with Buster 2.10.2 or Refmac 5.8. […] When multiple ligand poses were observed, for instance arising from multiple molecules in the asymmetric unit or refined dual poses within the same molecule, only one pose was selected and analyzed.
LigPlot+ calls these ‘nonbonded contacts’ or ‘hydrophobic contacts’. Despite the name, there are atom pairings that include possible H-bonds. Thus, in some instances, the Table A2 also contains H-bond interactions.

MASP-2 CCP2-SP, sequence (O00187 445-686): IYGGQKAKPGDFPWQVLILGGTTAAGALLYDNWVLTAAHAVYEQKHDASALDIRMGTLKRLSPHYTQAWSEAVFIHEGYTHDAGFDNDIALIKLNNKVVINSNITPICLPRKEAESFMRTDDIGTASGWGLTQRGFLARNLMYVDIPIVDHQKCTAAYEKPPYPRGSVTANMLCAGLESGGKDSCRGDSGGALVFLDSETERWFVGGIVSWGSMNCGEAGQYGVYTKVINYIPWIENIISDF
MASP-2 CCP2-SP, sequence (O00187 364-432 partner): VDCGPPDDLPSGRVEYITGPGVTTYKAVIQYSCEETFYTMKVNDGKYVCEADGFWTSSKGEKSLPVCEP

SMILES | Ligand-pharmacophore element distance, pharmacophore element C2
C[C@H](NC(=O)[C@H]1C[C@@H](c2ccccc2)CCN1)C(=O)NCc1cc(Cl)ccc1O.Cl [1078_7] | 0.64

Same assay, conditions: Table A4-1; element C3

SMILES | Ligand-pharmacophore element distance, pharmacophore element C3
C[C@H](NC(=O)[C@H]1C[C@@H](c2ccccc2)CCN1)C(=O)NCc1cc(Cl)ccc1O.Cl [1078_7] | 0

Same assay, conditions: Table A4-1; element C4

SMILES | Ligand-pharmacophore element distance, pharmacophore element C4
C[C@H](NC(=O)[C@H]1C[C@@H](c2ccccc2)CCN1)C(=O)NCc1cc(Cl)ccc1O.Cl [1078_7] | 0

Same assay, conditions: Table A4-1; element C5

SMILES | Ligand-pharmacophore element distance, pharmacophore element C5
C[C@H](NC(=O)[C@H]1C[C@@H](c2ccccc2)CCN1)C(=O)NCc1cc(Cl)ccc1O.Cl [1078_7] | 0.61

Same assay, conditions: Table A4-1; element C6

SMILES | Ligand-pharmacophore element distance, pharmacophore element C6
C[C@H](NC(=O)[C@H]1C[C@@H](c2ccccc2)CCN1)C(=O)NCc1cc(Cl)ccc1O.Cl [1078_7] | 0

Same assay, conditions: Table A4-1; element C7

SMILES | Ligand-pharmacophore element distance, pharmacophore element C7
C[C@H](NC(=O)[C@H]1C[C@@H](c2ccccc2)CCN1)C(=O)NCc1cc(Cl)ccc1O.Cl [1078_7] | 0

Same assay, conditions: Table A4-1; element CA1

SMILES | Ligand-pharmacophore element distance, pharmacophore element CA1
C[C@H](NC(=O)[C@H]1C[C@@H](c2ccccc2)CCN1)C(=O)NCc1cc(Cl)ccc1O.Cl [1078_7] | 1.69

Same assay, conditions: Table A4-1; element CA2

SMILES | Ligand-pharmacophore element distance, pharmacophore element CA2
C[C@H](NC(=O)[C@H]1C[C@@H](c2ccccc2)CCN1)C(=O)NCc1cc(Cl)ccc1O.Cl [1078_7] | 0.55

Same assay, conditions: Table A4-1; element CA3

SMILES | Ligand-pharmacophore element distance, pharmacophore element CA3
C[C@H](NC(=O)[C@H]1C[C@@H](c2ccccc2)CCN1)C(=O)NCc1cc(Cl)ccc1O.Cl [1078_7] | 0

Same assay, conditions: Table A4-1; element CA4

SMILES | Ligand-pharmacophore element distance, pharmacophore element CA4
C[C@H](NC(=O)[C@H]1C[C@@H](c2ccccc2)CCN1)C(=O)NCc1cc(Cl)ccc1O.Cl [1078_7] | 0

Same assay, conditions: Table A4-1; element CA5

SMILES | Ligand-pharmacophore element distance, pharmacophore element CA5
C[C@H](NC(=O)[C@H]1C[C@@H](c2ccccc2)CCN1)C(=O)NCc1cc(Cl)ccc1O.Cl [1078_7] | 0

Same assay, conditions: Table A4-1; element CA6

SMILES | Ligand-pharmacophore element distance, pharmacophore element CA6
C[C@H](NC(=O)[C@H]1C[C@@H](c2ccccc2)CCN1)C(=O)NCc1cc(Cl)ccc1O.Cl [1078_7] | 0

Same assay, conditions: Table A5-1 pharmacophore: distance between elements, S2/S1 region

SMILES | d(CA1,C5) | d(CA1,O1) | d(CA1,O2) | d(CA1,O4) | d(H4,O1) | d(H4,O2) | d(O1,O2) | d(O4,H2)
C[C@H](NC(=O)[C@H]1C[C@@H](c2ccccc2)CCN1)C(=O)NCc1cc(Cl)ccc1O.Cl [1078_7] | 3.14 | 4.83 | 4.83 | 2.77 | 2.08 | 2.49 | 3.35 | 0.97

Same assay, conditions: Table A5-2 pharmacophore distance, S3/S4 region

SMILES | d(N2,C2) | d(N2,CA2) | d(O2,H3) | d(O2,N2)
C[C@H](NC(=O)[C@H]1C[C@@H](c2ccccc2)CCN1)C(=O)NCc1cc(Cl)ccc1O.Cl [1078_7] | 1.47 | 5.74 | 3.26 | 3.04

Same assay, conditions: Table A6-1 pharmacophore angle

SMILES | a(C5, CA1, O1) | a(CA1, O1, O2) | a(CA1, O4, H2) | a(O1, CA1, O4) | a(O1, O2, H4)
C[C@H](NC(=O)[C@H]1C[C@@H](c2ccccc2)CCN1)C(=O)NCc1cc(Cl)ccc1O.Cl [1078_7] | 158.86 | 110.36 | 126.10 | 67.29 | 86.28

Same assay, conditions: Table A6-2 pharmacophore angle

SMILES | a(O1, O2, H3) | a(O1, O2, N2) | a(O2, N2, C2) | a(O2, N2, CA2)
C[C@H](NC(=O)[C@H]1C[C@@H](c2ccccc2)CCN1)C(=O)NCc1cc(Cl)ccc1O.Cl [1078_7] | 137.32 | 140.50 | 114.22 | 151.33

Same assay, conditions: Table A7-1; between pharmacophore elements of the bound compound

SMILES | Pharmacophore torsion angle a(C5, CA1, O1, H4) | Pharmacophore torsion angle a(H4, O1, O2, H3) | Pharmacophore torsion angle a(H4, O1, O2, N2) | Pharmacophore torsion angle a(O1, H4, O2, CA1) | Pharmacophore torsion angle a(O1, O2, N2, C2)
C[C@H](NC(=O)[C@H]1C[C@@H](c2ccccc2)CCN1)C(=O)NCc1cc(Cl)ccc1O.Cl [1078_7] | 30.48 | −121.10 | −116.26 | −57.85 | 144.61

Same assay, conditions: Table A7-2; between pharmacophore elements of the bound compound

SMILES | Pharmacophore torsion angle a(O1, O2, N2, CA2)
C[C@H](NC(=O)[C@H]1C[C@@H](c2ccccc2)CCN1)C(=O)NCc1cc(Cl)ccc1O.Cl [1078_7] | 143.84
